US10100307B2, “Use of a reverse-transcriptase inhibitor in the prevention and treatment of degenerative diseases” (Centre National de la Recherche Scientifique, priority 2014, dated 2018)

Tests used:
[1] = tested on: Mouse embryonic midbrain neurons; experiment: Formation of DSBs (gamma-H2AX foci per neuron) induced by H2O2 oxidative stress in vitro; format: cell-based; conditions: Stavudine 10 μM; gamma-H2AX labeling; H2O2 for 1 h; FIG. 2A; ***p<0.001, n=6
Procedure: (§1) Embryonic midbrain neurons (embryonic day 13.5) are cultured in NBGK medium (Neurobasal® (Life Technologies) supplemented with glutamine (500 μM, SIGMA), glutamic acid (3.3 mg/ml, SIGMA), aspartic acid (3.7 mg/ml, SIGMA), anti-anti and B27® (GIBCO)). A midbrain neuron culture was incubated overnight in the presence of Stavudine (10 μM in 0.9% NaCl). A control culture was treated under the same conditions, with a solution of NaCl (0.9%). The following day, the culture medium was replaced with Neurobasal® medium (Life Technologies) not supplemented with B27® (Life Technologies), containing 5 μM of H2O2 and 10 μM Stavudine/NaCl, for 1 h (FIG. 2). Alternatively, the cells were treated with H2O2 (100 μM) in the presence of B27 for one hour. Stavudine (10 μM) was added twice, 24 hours before and during treatment with H2O2 or lipofection (FIG. 2). The neurons were then fixed with PBS 4% paraformaldehyde (PFA) for 20 min, then treated with glycine (100 mM) in PBS for 10 min. […] The number of gamma-H2AX foci per neuron was counted on several slides, then the mean was taken over more than 30 neurons. […]
Mouse embryonic midbrain neurons (14 days' gestation), treated or untreated with an RT inhibitor (Stavudine), were subjected to an oxidative stress by addition of H2O2. […] The number of DSBs per neuron was evaluated after γ-H2AX labeling.

[2] = tested on: primary midbrain neurons; experiment: Formation of DNA breaks induced by transfection with a plasmid (wt L1) overexpressing LINE-1; format: cell-based, mouse; conditions: Stavudine 10 μM added 24 hours before and during lipofection; FIG. 2B; ***p<0.001, n=6
Procedure: as §1

[3] = tested on: TH+ neurons in the substantia nigra pars compacta; experiment: 6-OHDA injection into the substantia nigra (oxidative stress in vivo), stereological count of TH+ neurons; parameters: species or system mice; conditions: 24 h after injection of 6-OHDA; Stavudine 10 μM injected 30 min before and with 6-OHDA; FIG. 3B; **p<0.01, n=5
Procedure: For the 6-OHDA (6-hydroxydopamine) injections, anesthetized mice were placed on a stereotactic device and a burr hole was drilled in the cranium, 3.3 mm caudally and 1 mm laterally from the bregma. The needle of the syringe was aligned over the hole and descended 4 mm from the surface of the cranium, and 6-OHDA (2 μl; 0.8 μg/μl Sigma) or control (NaCl 0.9%) was injected into the SNpc for more than 4 min. For the immunohistological analysis, the mice were sacrificed 6 h, 24 h or 7 days after 6-OHDA injection. For the qRT-PCR analyses, tissues from the SNpc 6 h after 6-OHDA injection were obtained by extracting 1 mm samples from 2 mm thick disks of frozen tissue, using a stereotactic apparatus. The tissues were embedded in OCT, frozen in cooled isopentane, then preserved at -80° C. before being sectioned. 20 μm thick sections of the brain at the SNpc were made. […] The labeled brain sections were visualized using a confocal fluorescence microscope (SP5, Leica). […] The microscopy images were analyzed using the VisioScan T4.18 software (ExploraNova, La Rochelle, France) as described previously ([…]. 2003). The cell numbers were quantified stereologically on sections spaced apart regularly covering all of the rostrocaudal extent of the substantia nigra, using the VisioScan stereology tool. […]

## Cc1cn([C@H]2C=C[C@@H](CO)O2)c(=O)[nH]c1=O [Stavudine, 2′-3′-didehydro-2′-3′-dideoxythymidine]
[1]
  reduction of the formation of DSBs induced by H2O2: 40%
[2]
  formation of DNA breaks induced by wt L1 plasmid overexpressing LINE-1: suppressed
[3]
  number of TH+ neurons in the substantia nigra pars compacta (cell death after oxidative stress in vivo): higher
